We go through 80 compounds from the METLIN SMRT retention time set (Domingo-Almenara et al. 2019).

A short description of the data set: gradient 5% acetonitrile 3 min, to 50% in 2 min, to 85% in 15 min, held 3 min, 100 µL/min. Conditions: column: Zorbax Extend-C18 2.1 x 50 mm; eluents: water / acetonitrile, 0.1% formic acid. The essentials: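 Over 3 months, pure standards in mixtures of ~100 molecules were run by HPLC coupled to a quadrupole time-of-flight mass spectrometer in positive and negative ionization mode. The column was a Zorbax Extend-C18 (2.1 × 50 mm, 1.8 μm) at 100 μL/min, eluted with water and acetonitrile each holding 0.1% formic acid, with 40 μL dead and 900 μL dwell volumes. Retention time was determined from adduct peaks chosen by software and checked manually.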
On to `Cc1ccc2c(c1)C1(CCN(CCc3nc(-c4ccccc4)oc3C)CC1)OC(=O)N2`, for which the RP-LC retention time came out at 747 s.

As to `Cc1ccc(CC(=O)N2CCc3cc(-c4csc(C)n4)ccc32)cc1`, the RP-LC retention time turned out to be 1070 s.

Take `Cc1ccc(C)c(NC(=O)c2c(C)sc3ncnc(N4CCCC(C)C4)c23)c1` (stereo not given): the RP-LC retention time is 1240 s.

As to `Cc1cc(C2CCCN2C(=O)Cc2c(F)cccc2Cl)on1` (stereo not given), the RP-LC retention time was 848 s.

The compound `CCN1c2ccc(C(=O)Nc3ccc4c(c3)OCCO4)cc2-c2ccccc2S1(=O)=O` gave an RP-LC retention time of 990 s.

`O=C(NCc1ccccc1Cl)c1nnc(-c2ccc(S(=O)(=O)N3CCOCC3)cc2)o1`: the RP-LC retention time was 888 s.

Consider `O=C(c1cc2ccccc2o1)N1CC(c2nc(-c3cccnc3)no2)C1`, for which the RP-LC retention time is 709 s.

`Cn1c(=O)c(N2CCN(C(=O)c3ccc(Br)cc3)CC2)nc2cccnc21` gave an RP-LC retention time of 911 s.

`CN(Cc1ccccc1)C(=O)C1c2ccccc2C(=O)N(C)C1c1cccs1` (stereo not given): the RP-LC retention time turned out to be 877 s.

In the case of `CCc1ccc(-n2ncc3c(=O)n(Cc4nc(-c5ccc(C)c(C)c5)no4)cnc32)cc1`, the RP-LC retention time worked out at 1300 s.

Compound `COC(=O)c1ccccc1NC(=O)CSc1nccc(N2CCN(c3cccc(OC)c3)CC2)n1` showed an RP-LC retention time of 695 s.

In the case of `Cc1ccc(CNC(=O)Cn2c(N)nc(C)cc2=O)cc1`, the RP-LC retention time was 595 s.

In the case of `COc1ccc(OC)c(CNC(=O)C2CCCN(c3nccnc3Sc3ccccc3)C2)c1` (stereo not given), the RP-LC retention time was determined as 1000 s.

In turn, `CCOc1ccc(-c2ccc(=O)n(Cc3nc(-c4ccc(C)c(C)c4)no3)n2)cc1` returned an RP-LC retention time of 576 s.

Consider `COc1ccc2[nH]cc(CCNC(=O)c3ccccc3NC(=O)C3=C(C)OCCS3)c2c1`, for which the RP-LC retention time came out at 938 s.

Turning to `CN1CCc2nnc(C3CCN(C(=O)Nc4cc(Cl)cc(Cl)c4)C3)n2CC1` (stereo not given), the RP-LC retention time turned out to be 623 s.

`COc1cccc(CN2CC[C@@](C)(O)[C@H](N3CCCC3)C2)c1`: the RP-LC retention time came out at 519 s.

`Nc1ccc2c(c1)Cc1cc(Cl)c(Cl)cc1-2` returned an RP-LC retention time of 963 s.

In turn, `O=C(NCc1[nH]nc2ccccc12)c1ccoc1` yielded an RP-LC retention time of 655 s.

Regarding `O=C(c1ccc(OCC2CCCN2C(=O)C2CCC2)cc1)N1CCCC1` (stereo not given), the RP-LC retention time stood at 783 s.

Regarding `CCOC(=O)Cc1ccc(NC(=O)N2CCc3cn(C)c4cccc(c34)C2)cc1`, the RP-LC retention time worked out at 749 s.

Take `Cc1cc(NC(=O)C2CCCN(S(=O)(=O)c3cc(-c4noc(C5CCCC5)n4)cs3)C2)no1` (stereo not given): the RP-LC retention time worked out at 1110 s.

In turn, `COC(=O)c1ncn2c1C(=O)N(Cc1cccc(F)c1)C(C)(C(=O)NCc1ccccc1)C2` (stereo not given) displayed an RP-LC retention time of 729 s.

With `CC(=O)Nc1ccc(S(=O)(=O)NCCc2cn(CC(C)C)c3ncccc23)cc1`, the RP-LC retention time stood at 726 s.

`CN(C)c1ccc(CNC(=O)CN2CCN(C(=O)Nc3ccc(Br)cc3)CC2=O)cc1`: the RP-LC retention time amounted to 611 s.

`COc1ccc(OC)c(NC(=O)CCc2c(C)nn(-c3cc(N(C)C)ncn3)c2C)c1` returned an RP-LC retention time of 822 s.

`OC(CN1CCN(c2ccccn2)CC1)c1ccc(Cl)cc1` (stereo not given) displayed an RP-LC retention time of 563 s.

`CC(C)S(=O)(=O)c1cc2c(cc1NC(=O)c1ccc(Cl)cc1)n(C)c(=O)n2C` showed an RP-LC retention time of 936 s.

Take `Cc1ccc2c(=O)c3c([nH]c2c1C)CCN(CC(=O)Nc1cccc(C#N)c1)C3`: the RP-LC retention time is 607 s.

As to `NC(=O)C1CCN(C(=O)C2CCN(C(=O)C3CC(=O)N(c4ccc(F)cc4)C3)CC2)CC1` (stereo not given), the RP-LC retention time was 599 s.

As for `O=C(NCc1ccccc1)C12CC3CCC(CC(C3)C1)C2`, the RP-LC retention time was 1020 s.

Compound `CCOc1ccc(N2CC(c3nc(-c4cc(OC)c(OC)c(OC)c4)no3)CC2=O)cc1` (stereo not given) gave an RP-LC retention time of 954 s.

`O=C(C1CCC1)N1CCc2sc(S(=O)(=O)NCc3ccc(Cl)cc3)cc2C1`: the RP-LC retention time was 916 s.

Compound `COc1cc2oc3cc(C)oc(=O)c3c2cc1OC` showed an RP-LC retention time of 841 s.

For `COc1ccc(CN2N=C(C(=O)N3CCCC3)S(=O)(=O)c3ccccc32)cc1F`, the RP-LC retention time was determined as 725 s.

Compound `Cc1noc(C2(NC(=O)Cc3ccccc3C)CCCCC2)n1` registered an RP-LC retention time of 884 s.

Turning to `O=C(Nc1ccc(S(=O)(=O)Nc2nccs2)cc1)c1sc2ccccc2c1Cl`, the RP-LC retention time is 799 s.

Consider `O=C(COc1ccc(-c2nnc3n2CCCC3)cc1)Nc1cccc(Br)c1`, for which the RP-LC retention time is 642 s.

`Cc1ccccc1Nc1c(-c2c(F)cccc2Cl)nc2c(C)cccn12` gave an RP-LC retention time of 774 s.

Regarding `Cc1ccc(CSc2nc(CC(=O)NCc3nnc(C)o3)cs2)cc1`, the RP-LC retention time was 724 s.

As to `Cc1nnc2ccc(N3CCC(C(=O)N4CCN(c5cccc(Cl)c5)CC4)CC3)nn12`, the RP-LC retention time was found to be 860 s.

Compound `CN1C(=O)c2cc(C(=O)NCc3ccccc3)nn2CC1(C)C(=O)NC1CCCCC1` (stereo not given) gave an RP-LC retention time of 761 s.

In the case of `Cc1cccc(-c2nc(N)n(C(=O)C3CC3)n2)c1`, the RP-LC retention time stood at 885 s.

As to `COc1cc(Br)c(CC2C(=O)Nc3ccccc32)cc1OC` (stereo not given), the RP-LC retention time turned out to be 842 s.

Compound `COc1ccc(N2CCN(C(=O)C3c4ccccc4CCN3C(=O)C3CC3)CC2)cc1` (stereo not given) displayed an RP-LC retention time of 811 s.

Regarding `Cn1nc2c(c1NC(=O)Cc1ccc3c(c1)OCO3)CCC2`, the RP-LC retention time stood at 644 s.

`CCC(=O)N1CCc2c(C(=O)O)cccc21` had an RP-LC retention time of 657 s.

Turning to `Cc1cccc(-c2noc(-c3nn(CC(=O)NC4CC4)c4ccccc34)n2)c1`, the RP-LC retention time amounted to 1040 s.

The compound `Cc1sc2cc(C(=O)N3CCN(c4ccccc4F)CC3)[nH]c2c1CN1CCOCC1` gave an RP-LC retention time of 704 s.

Turning to `COCCN1CC2(CCN(S(=O)(=O)c3ccc(Cl)cc3C)CC2)C1c1ccccc1` (stereo not given), the RP-LC retention time worked out at 779 s.

For `O=C1CCCN1c1ccc(Cn2nc3c(S(=O)(=O)N4CCCC4)cccn3c2=O)cc1`, the RP-LC retention time worked out at 673 s.

In turn, `O=C(NCc1ccco1)N1CCc2nn(Cc3ccccc3)c(=O)n2CC1` had an RP-LC retention time of 687 s.

Compound `CC(C)c1cccc(NC(=O)Cn2nc(N3CCCC3)c3ccccc3c2=O)c1` registered an RP-LC retention time of 1090 s.

As to `Nc1cccc2c1CN(C1CCC(=O)NC1=O)C2=O` (stereo not given), the RP-LC retention time turned out to be 595 s.

On to `CCCCNC(=O)CN1C(=O)CC(c2cccs2)=Nc2ccccc21`, for which the RP-LC retention time came out at 835 s.

As for `COC(=O)c1c2c(nc3ccccc13)CCN(C(=O)Nc1ccccc1)C2`, the RP-LC retention time came to 743 s.

As to `O=C(Nc1ccc(-c2nnc3n2CCCC3)cc1)c1ccco1`, the RP-LC retention time stood at 609 s.

`O=C(NCCC1CCN(C(=O)Nc2ccc(F)cc2F)CC1)c1cccs1` gave an RP-LC retention time of 737 s.

`CCC(C)Oc1nc2c(c(=O)n(C)c(=O)n2C)n1C` (stereo not given) gave an RP-LC retention time of 865 s.

As to `CCOC(=O)c1c(C)[nH]c(CCC(=O)NC(C)c2ccccc2)c1C` (stereo not given), the RP-LC retention time came to 853 s.

In turn, `Cc1ccc(-c2cn3c(CC(=O)NCc4ccccc4C)csc3n2)cc1C` yielded an RP-LC retention time of 859 s.

`Cc1noc(C)c1S(=O)(=O)N1CCC(n2c(C)cnc2-c2ccncc2)C1` (stereo not given): the RP-LC retention time stood at 616 s.

In turn, `Cn1c(=O)oc2cc(-c3noc(/C=C/c4ccccc4)n3)ccc21` yielded an RP-LC retention time of 1060 s.

The compound `CCc1cccc(N2C(=O)CN(S(C)(=O)=O)CC2(C)C(=O)NCc2ccccc2)c1` (stereo not given) had an RP-LC retention time of 804 s.

As for `COc1ccc(C2Cn3nnc(-c4nc(-c5ccc(Br)cc5)no4)c3CO2)cc1` (stereo not given), the RP-LC retention time came out at 1260 s.

Take `Cc1cc(=O)n(CC(=O)Nc2ccccc2)c(N)n1`: the RP-LC retention time was found to be 580 s.

`CCOC(=O)c1c(S(=O)(=O)N2CCC(C(=O)N3CCc4ccccc4C3)CC2)c(C)n(C)c1C` showed an RP-LC retention time of 872 s.

`O=C(NCCc1ccccn1)C1(CCO)CCN(c2ncccn2)C1` (stereo not given) gave an RP-LC retention time of 526 s.

Regarding `O=C(NCCN1CCc2ccccc2C1)c1cccc(N2CCNC(c3ccccc3)C2)n1` (stereo not given), the RP-LC retention time was 576 s.

For `Cc1ccc(NC(=O)c2cc(C(C)C)n(C3CCS(=O)(=O)C3)n2)cc1C` (stereo not given), the RP-LC retention time is 949 s.

In the case of `COCCCNC(=O)C1CCCN(c2nnc(C)c3c(C)n(-c4ccc(OC)cc4)nc23)C1` (stereo not given), the RP-LC retention time is 633 s.

`Cn1cc(C(=O)NCc2ccc(F)cc2)c2cccnc21` showed an RP-LC retention time of 721 s.

`COC(=O)C1C(=O)C2=C(CC1C)NC(=O)CC2c1cccc(C)c1` (stereo not given) had an RP-LC retention time of 675 s.

`Cc1cc(=O)n(CC(=O)Nc2cc(F)cc(F)c2)c(N2CCCCC2)n1` returned an RP-LC retention time of 733 s.

For `Cc1c(Cl)cccc1NC(=O)Cn1ccc2sccc2c1=O`, the RP-LC retention time came to 764 s.

In turn, `COc1ccc(NC(=O)c2noc3c2CCCCC3)cc1` showed an RP-LC retention time of 989 s.

For the compound `CCCCN1C(=O)C(C)(C(=O)NCc2ccc(F)cc2)Oc2cccnc21` (stereo not given), the RP-LC retention time was found to be 984 s.

`COc1cccc(N2CCN(S(=O)(=O)c3cc(-c4csc(C)n4)ccc3C)CC2)c1` displayed an RP-LC retention time of 1190 s.

In turn, `CC(=O)c1ccc(N=NC(C(N)=O)C2NC(C)(C)Cc3ccccc32)cc1` (stereo not given) returned an RP-LC retention time of 794 s.

The compound `Cc1nn2c(nnc3c(=O)n(CCc4c[nH]c5ccc(F)cc45)ccc32)c1-c1ccc(F)cc1` came in with an RP-LC retention time of 961 s.
